# Measured values: US20100041089A1, “IMPROVED METHOD FOR DETECTING CHEMICAL […]” (priority 2006, published 2010)
# System: yeast genes (expressed mRNA)
# Assay: DNA chip measurement of expressed mRNA of yeast genes after culture with a toxic chemical substance
# Format: cell-based, Saccharomyces cerevisiae S288C
# Procedure: Yeast (Saccharomyces cerevisiae S288C (a SUC2mal mel gap2 CUP1)) were cultured at 25° C. on YPD medium (yeast extract 1%, polypeptone 2%, glucose 2%). One of toxic chemical substances was added to the cell at logarithmic growth phase, and the cell was further cultured for two hours. Cell was cultured without any chemical substance in the same condition, and was used as a control. Concentrations of the chemical substances were defined to inhibit the growth of the yeast but not lead to death.
# After the completion of cultivation, the culture was centrifuged to collect the cells. To the cells, sodium acetate buffer (50 mM sodium acetate, 10 mM EDTA, 1% SDS) was added, and the mixture was shaken at 65° C. for five minutes, followed by returning to room temperature, and obtaining the supernatant, which procedure was repeated two times. To the supernatant, ½ amount of a solution of phenol/chloroform (1:1) was added, and the mixture was centrifuged to give a supernatant, an equal amount of chloroform was added, and the mixture was centrifuged to give a supernatant. To the supernatant, an equal amount of isopropanol containing 0.3 M sodium acetate was added, and the mixture was allowed to stand at room temperature for 30 minutes, after which the mixture was centrifuged to give sediment of the whole RNAs. Seventy % ethanol was added to the sediment, and the mixture was again centrifuged to give sediment, which was then dried and dissolved in water. mRNA was isolated from the whole RNAs as followings. In view of the fact that a poly A chain is attached to the 3′ terminus of mRNA, a polynucleotide having a poly T structure which was immobilized on the surface of latex beads was used to trap the mRNA, and then the mRNA was washed and eluted with spine column (Oligotex-dT30<Super>mRNA Purification Kit, Takara). Reverse transcription of the mRNA was conducted with a reverse transcriptase (Super Script II Reverse Transcriptase; catalogue No. 18064-014, GibcoBRL) using fluorescence-labeled nucleotides to give cDNAs that were introduced with Cy3-dUTP or Cy5-dUTP during the reverse transcription.
# The labeled cDNAs were dissolved in TE buffer (10 mM Tris-HCl/1 mM EDTA, pH 8.0), and the solution was dropped on the DNA chip containing the whole genes of yeast (DNA Chip Research Inc. Japan) so that the cDNAs were hybridized on the DNA chip at 65° C. for over 12 hours. The fluoresces intensity of the DNA chip was read with a scanner, and the ratio relative to the fluorescence intensity resulting from the absence of chemical substance was estimated as the following, which is shown in Tables 1 to 9.
# In the Tables, “Intensity” indicated in the rightmost column is a value of the level of expressed mRNA of each gene in control cells as divided by the average level of the expressions of the whole genes. A gene of which mRNA level is lower in control, and is higher in cases of addition of chemical substance, is especially useful in the detection of toxic substances.
# Here, when a ratio of an amount of mRNA expressed in the presence of the chemical substance to an amount of mRNA expressed in the absence of the chemical substance is two or more, then it is considered significant.
smiles,measurement,setting,value
"CCCCCCCCCCCCOS(=O)(=O)[O-].[Na+] [(18), Sodium lauryl sulfate]",The level of expressed mRNA in the presence of chemical substance/The level of expressed mRNA in the absence of chemical substance,"yeast gene YAL053W, cultured two hours with substance",1.6
same,The level of expressed mRNA in the presence of chemical substance/The level of expressed mRNA in the absence of chemical substance,"yeast gene YAR028W, cultured two hours with substance",2.1
same,The level of expressed mRNA in the presence of chemical substance/The level of expressed mRNA in the absence of chemical substance,"yeast gene YAR031W, cultured two hours with substance",2.5
same,The level of expressed mRNA in the presence of chemical substance/The level of expressed mRNA in the absence of chemical substance,"yeast gene YBL048W, cultured two hours with substance",1.0
same,The level of expressed mRNA in the presence of chemical substance/The level of expressed mRNA in the absence of chemical substance,"yeast gene YBL057C, cultured two hours with substance",1.2
same,The level of expressed mRNA in the presence of chemical substance/The level of expressed mRNA in the absence of chemical substance,"yeast gene YBL107C, cultured two hours with substance",1.4
same,The level of expressed mRNA in the presence of chemical substance/The level of expressed mRNA in the absence of chemical substance,"yeast gene YBR005W, cultured two hours with the substance",4.6
same,The level of expressed mRNA in the presence of chemical substance/The level of expressed mRNA in the absence of chemical substance,yeast gene YCL035C (detoxification protein gene),4.2
same,The level of expressed mRNA in the presence of chemical substance/The level of expressed mRNA in the absence of chemical substance,yeast gene YCL035C (stress protein genes),4.2
same,The level of expressed mRNA in the presence of chemical substance/The level of expressed mRNA in the absence of chemical substance,"yeast gene YCR015C, cultured two hours with the chemical substance",1.2
same,The level of expressed mRNA in the presence of chemical substance/The level of expressed mRNA in the absence of chemical substance,"yeast gene YDL072C, cultured two hours with substance",2.8
same,The level of expressed mRNA in the presence of chemical substance/The level of expressed mRNA in the absence of chemical substance,"yeast gene YDL110C, cultured two hours with substance",4.4
same,The level of expressed mRNA in the presence of chemical substance/The level of expressed mRNA in the absence of chemical substance,"yeast gene YDL204W, cultured two hours with substance",2.7
same,The level of expressed mRNA in the presence of chemical substance/The level of expressed mRNA in the absence of chemical substance,"yeast gene YDL222C, cultured two hours with substance",1.3
same,The level of expressed mRNA in the presence of chemical substance/The level of expressed mRNA in the absence of chemical substance,"yeast gene YDR018C, cultured two hours with substance",1.2
same,The level of expressed mRNA in the presence of chemical substance/The level of expressed mRNA in the absence of chemical substance,"yeast gene YDR031W, cultured two hours with substance",2.5
same,The level of expressed mRNA in the presence of chemical substance/The level of expressed mRNA in the absence of chemical substance,"yeast gene YDR070C, cultured two hours with substance",3.1
same,The level of expressed mRNA in the presence of chemical substance/The level of expressed mRNA in the absence of chemical substance,"yeast gene YDR330W, cultured two hours with substance",1.3
same,The level of expressed mRNA in the presence of chemical substance/The level of expressed mRNA in the absence of chemical substance,"yeast gene YDR350C, cultured two hours with substance",1.2
same,The level of expressed mRNA in the presence of chemical substance/The level of expressed mRNA in the absence of chemical substance,"yeast gene YDR391C, cultured two hours with substance",2.4
same,The level of expressed mRNA in the presence of chemical substance/The level of expressed mRNA in the absence of chemical substance,"yeast gene YDR411C, cultured two hours with substance",1.3
same,The level of expressed mRNA in the presence of chemical substance/The level of expressed mRNA in the absence of chemical substance,"yeast gene YDR482C, cultured two hours with substance",1.2
same,The level of expressed mRNA in the presence of chemical substance/The level of expressed mRNA in the absence of chemical substance,"yeast gene YDR486C, cultured two hours with substance",1.7
same,The level of expressed mRNA in the presence of chemical substance/The level of expressed mRNA in the absence of chemical substance,"yeast gene YDR511W, cultured two hours with substance",1.5
same,The level of expressed mRNA in the presence of chemical substance/The level of expressed mRNA in the absence of chemical substance,"yeast gene YDR531W, cultured two hours with substance",1.2
same,The level of expressed mRNA in the presence of chemical substance/The level of expressed mRNA in the absence of chemical substance,"yeast gene YDR545W, cultured two hours with substance",0.9
same,The level of expressed mRNA in the presence of chemical substance/The level of expressed mRNA in the absence of chemical substance,"yeast gene YEL001C, cultured two hours with substance",1.3
same,The level of expressed mRNA in the presence of chemical substance/The level of expressed mRNA in the absence of chemical substance,"yeast gene YER004W, cultured two hours with substance",1.2
same,The level of expressed mRNA in the presence of chemical substance/The level of expressed mRNA in the absence of chemical substance,"yeast gene YER035W, cultured two hours with substance",2.1
same,The level of expressed mRNA in the presence of chemical substance/The level of expressed mRNA in the absence of chemical substance,"yeast gene YER038C, cultured two hours with substance",1.4
same,The level of expressed mRNA in the presence of chemical substance/The level of expressed mRNA in the absence of chemical substance,"yeast gene YER079W, cultured two hours with substance",1.6
same,The level of expressed mRNA in the presence of chemical substance/The level of expressed mRNA in the absence of chemical substance,"yeast gene YER106W, cultured two hours with substance",0.8
same,The level of expressed mRNA in the presence of chemical substance/The level of expressed mRNA in the absence of chemical substance,"yeast gene YER158C, cultured two hours with substance",1.2
same,The level of expressed mRNA in the presence of chemical substance/The level of expressed mRNA in the absence of chemical substance,"yeast gene YER163C, cultured two hours with substance",1.2
same,The level of expressed mRNA in the presence of chemical substance/The level of expressed mRNA in the absence of chemical substance,"yeast gene YER175C, cultured two hours with substance",1.2
same,The level of expressed mRNA in the presence of chemical substance/The level of expressed mRNA in the absence of chemical substance,"yeast gene YFL006W, cultured two hours with substance",0.8
same,The level of expressed mRNA in the presence of chemical substance/The level of expressed mRNA in the absence of chemical substance,"yeast gene YFL010C, cultured two hours with substance",1.6
same,The level of expressed mRNA in the presence of chemical substance/The level of expressed mRNA in the absence of chemical substance,"yeast gene YFL014W, DNA repair protein genes, cultured two hours with substance",8.8
same,The level of expressed mRNA in the presence of chemical substance/The level of expressed mRNA in the absence of chemical substance,"yeast gene YFL024C, cultured two hours with substance",0.8
